Data from ChEMBL document CHEMBL3769380, “New Synthetic Routes to Triazolo-benzodiazepine Analogues: Expanding the Scope of the Bump-and-Hole Approach for Selective Bromo and Extra-Terminal (BET) Bromodomain Inhibition” (J Med Chem, 2016).

Tests used:
[1] = system: DH5-alpha; assay: Selectivity ratio of Kd for N-terminal His6-tagged BRD2 bromodomain 1 (unknown origin) expressed in competent Escherichia coli BL21(DE3) cells to Kd for BRD2 bromodomain 1 L110A mutant (unknown origin) expressed in competent Escherichia coli DH5-alpha cells; details: Homo sapiens
[2] = system: DH5-alpha; assay: Selectivity ratio of Kd for N-terminal His6-tagged BRD2 bromodomain 2 (unknown origin) expressed in competent Escherichia coli BL21(DE3) cells to Kd for BRD2 bromodomain 2 L383A mutant (unknown origin) expressed in competent Escherichia coli DH5-alpha cells; details: Homo sapiens
[3] = system: DH5-alpha; assay: Selectivity ratio for BRD2 bromodomain 1 L110A mutant (unknown origin) expressed in competent Escherichia coli DH5-alpha cells over N-terminal His6-tagged BRD2 bromodomain 1 (unknown origin) expressed in competent Escherichia coli BL21(DE3) cells by differential scanning fluorimetry; details: Homo sapiens
[4] = system: DH5-alpha; assay: Selectivity ratio for BRD2 bromodomain 2 L383A mutant (unknown origin) expressed in competent Escherichia coli DH5-alpha cells over N-terminal His6-tagged BRD2 bromodomain 2 (unknown origin) expressed in competent Escherichia coli BL21(DE3) cells by differential scanning fluorimetry; details: Homo sapiens
[5] = target: T1, Bromodomain-containing protein 2 (Homo sapiens, UniProt P25440); assay: Binding affinity to recombinant poly-His-tagged BRD2 bromodomain 1 (unknown origin) by isothermal titration calorimetry
T1 sequence (P25440 whole entry): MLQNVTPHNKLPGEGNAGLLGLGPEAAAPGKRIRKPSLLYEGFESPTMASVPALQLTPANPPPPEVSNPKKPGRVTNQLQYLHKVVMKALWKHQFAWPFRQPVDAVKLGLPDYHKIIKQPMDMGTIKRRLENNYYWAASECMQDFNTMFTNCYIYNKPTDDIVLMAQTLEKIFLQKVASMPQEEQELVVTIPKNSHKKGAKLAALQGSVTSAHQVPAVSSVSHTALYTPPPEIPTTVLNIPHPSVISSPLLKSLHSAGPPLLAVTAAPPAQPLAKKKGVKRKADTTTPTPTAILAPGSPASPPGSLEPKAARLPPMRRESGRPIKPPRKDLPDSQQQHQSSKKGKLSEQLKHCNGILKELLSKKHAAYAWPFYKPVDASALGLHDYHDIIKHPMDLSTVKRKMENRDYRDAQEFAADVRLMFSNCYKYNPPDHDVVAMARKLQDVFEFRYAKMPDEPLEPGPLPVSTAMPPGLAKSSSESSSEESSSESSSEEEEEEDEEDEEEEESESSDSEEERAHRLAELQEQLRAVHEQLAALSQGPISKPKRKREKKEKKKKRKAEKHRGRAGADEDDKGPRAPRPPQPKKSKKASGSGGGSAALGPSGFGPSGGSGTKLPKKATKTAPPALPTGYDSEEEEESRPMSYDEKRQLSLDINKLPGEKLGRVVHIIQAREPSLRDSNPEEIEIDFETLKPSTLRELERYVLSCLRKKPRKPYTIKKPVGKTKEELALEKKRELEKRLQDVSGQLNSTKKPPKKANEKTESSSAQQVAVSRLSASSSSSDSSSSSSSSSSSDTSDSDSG

[6] = target: T1, Bromodomain-containing protein 2; assay: Binding affinity to recombinant poly-His-tagged BRD2 bromodomain 2 (unknown origin) by isothermal titration calorimetry

SMILES	Selectivity ratio [1]	Selectivity ratio [2]	Selectivity ratio [3]	Selectivity ratio [4]	Kd [5] [µM]	Kd [6] [µM]
CC[C@@H](C(=O)OC)[C@@H]1N=C(c2ccc(Cl)cc2)c2cc(OC)ccc2-n2c(C)nnc21	< 540	< 540	< 540	< 540	–	–
CC(=O)NCCCCn1c2c(c3ccccc31)C(=O)NCC2	–	–	–	–	8.6	> 300
